This note sets out measurements from US20260226054A1, “CRYSTAL FORM AND AMORPHOUS SUBSTANCE OF INDOLINE SPIRO COMPOUND, AND PREPARATION METHOD THEREFOR AND USE THEREOF” (CHANGCHUN GENESCIENCE PHARMACEUTICAL CO., LTD., priority 2022, published 2026).

The nature of series [1]: in vitro. The following applies: human, Caco-2, pH 7.4. As for the experimental part: A transport buffer solution in the study was HBSS containing 10.0 mM of HEPSS, and had pH of 7.40±0.05. The compound to be tested was subjected to bidirectional test at 2.00 μM, and the final concentration of DMSO was required to be less than 1%. In a CO2 incubator at 37±1° C., the cell plate was stood and incubated for 2 h under CO2 at 5% […] and saturated humidity. After mixing all samples with acetonitrile containing internal standard, the mixture was centrifuged at 3200×g for 10 min. The compound was tested, 100 μL of supernatant was diluted with 100 μL of ultrapure water for LC-MS/MS analysis. The concentration of the test compound and a control compound (Digoxin as a model verification compound and ibutamoren as a positive control) in a donor solution and a receiver solution was quantified by an LC-MS/MS method using the peak area ratio of the analyte/internal standard. After transport determination, a lucifer yellow exclusion determination was carried out to determine the integrity of the Caco-2 cell monolayer.

Series [2] has as its target T1, human GHSR (Homo sapiens, UniProt Q92847).
T1 construct: expressed in transfected cells
In words: Agonistic activity on human GHSR in human GHSR/CHO cells (FLIPR calcium). The format is cell-based. As to conditions: human GHSR/CHO stable transformant cells, Fluo-4 FLIPR. Here is the method: This method is used for determining the agonistic activity effect of the compound in the present invention on human GHSR protein expressed in human GHSR/CHO stable transformant cells.
Preparation of buffer solution: HBSS (1X): HEPES (1M)=49:1, 0.5% BSA added.
Human GHSR/CHO containing stable transformant cells were inoculated in a 384-well plate, a cell plate was taken out after overnight, the culture medium was removed, and 20 μL of buffer solution was slowly added in each well, then 20 μL of 2X Fluo-4 Direct™ No-wash Loading Buffer was added in each well. The cell plate was incubated in an incubator containing 5% of CO2 at 37° C. for 50 min, and the cell plate was taken out and placed at room temperature for 10 min. 30 μL of buffer solution was added to each well in the compound plate; an additional buffer solution plate was prepared, and 30 μL of buffer solution was added to each well. […] 10 μL of buffer solution was transferred to the cell plate, the fluorescence signal values were read. 10 μL of compound was transferred to the cell plate, the fluorescence signal values were read. The maximum-minimum values from the 91st signal point to the 230th signal point were calculated through the FLIPR program. The EC50 value of the compound could be calculated by the software using the fluorescence value corresponding to the different concentrations.

T1 sequence (Q92847 whole entry): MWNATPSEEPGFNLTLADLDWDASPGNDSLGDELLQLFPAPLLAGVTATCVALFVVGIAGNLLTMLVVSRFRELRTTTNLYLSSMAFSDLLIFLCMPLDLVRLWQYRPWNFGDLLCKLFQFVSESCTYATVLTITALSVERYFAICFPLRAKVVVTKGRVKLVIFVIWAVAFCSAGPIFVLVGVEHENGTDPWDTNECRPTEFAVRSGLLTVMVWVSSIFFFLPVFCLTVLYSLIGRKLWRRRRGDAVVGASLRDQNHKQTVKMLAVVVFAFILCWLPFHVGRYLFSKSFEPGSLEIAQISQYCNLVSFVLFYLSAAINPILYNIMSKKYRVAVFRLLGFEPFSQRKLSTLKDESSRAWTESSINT

One may read the Papp A→B as how fast a substance crosses the layer from the apical side. A low value points to poor permeation. The term Papp B→A denotes how fast a substance crosses the layer from the basolateral side. The term efflux ratio denotes a quotient of directional permeabilities that is used to spot active efflux. As a reminder, the EC50 is the concentration needed to bring the measured effect to its halfway point. For the molecule `CC(OC(=O)NC(C)(C)C(=O)N[C@H](COCc1ccccc1)C(=O)N1CCC2(CC1)CN(S(C)(=O)=O)c1ccccc12)OC(=O)C(C)C` (stereo partly drawn) [Compound 1e, (4R)-7,7-dimethyl-4-(1-(methylsulfonyl)spiro[indoline-3,4′-piperidine]-1′-carbonyl)-6,9-dioxo-1-phenyl-2,10-dioxa-5,8-diazadodecane-11-ylisobutyrate], in series [1], the Papp A→B at 2 h, 2 μM was 0.0518 ×10⁻⁶ cm/s; the Papp B→A at 2 h, 2 μM is 8.8 ×10⁻⁶ cm/s; the efflux ratio at 2 h, 2 μM stood at 170. Also, the EC50 in series [2] came out at 14.6 nM.
